Reference: US8076487B2, “Pyridone derivative and herbicide” (Kumiai Chemical Industry Co., Ltd., priority 2006, dated 2011)

Columns and labels:
Format in all cases: in vivo
[1] = tested on: velvetleaf (Abutilon theophrasti medicus); assay: Test Example 3: herbicidal effect by application to upland field (foliage treatment); conditions: foliage treatment, 1,000 g active ingredient per 1 hectare, 14th day after application, greenhouse
Outline: (§1)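 Post-emergence spray at 1,000 g AI/ha of wettable powder in water (1,000 L/ha), onto seedlings grown 2 weeks in greenhouse field-soil pots. Graded day 14.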

[2] = tested on: green foxtail (Setaria viridis (L.) P. Beauv.); assay: as above; conditions: foliage treatment, 1,000 g active ingredient per 1 hectare, 14th day after application, greenhouse
Outline: as §1

[3] = tested on: slender amaranth (Amaranthus viridis L.); assay: as above; conditions: foliage treatment, 1,000 g active ingredient per 1 hectare, 14th day after application, greenhouse
Outline: as §1

[4] = tested on: barnyardgrass (Echinochloa crus-galli (L.) P. Beauv. var. crus-galli); assay: as above; conditions: foliage treatment, 1,000 g active ingredient per 1 hectare, 14th day after application, greenhouse
Outline: as §1

[5] = tested on: velvetleaf (Abutilon theophrasti medicus); assay: Test Example 2: herbicidal effect by soil application to upland field; conditions: soil surface spray, upland field soil, 1,000 g active ingredient per hectare, 21st day after application
Outline: (§2)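 In this soil-application test, sown and soil-covered pots are sprayed uniformly with the formulation diluted in water, giving 1,000 g of active ingredient per ha in a volume of 1,000 L per ha. Plants then grow in a greenhouse for 21 days before herbicidal scoring by a standard scale.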

[6] = tested on: green foxtail (Setaria viridis (L.) P. Beauv.); assay: as above; conditions: soil surface spray, upland field soil, 1,000 g active ingredient per hectare, 21st day after application
Outline: as §2

[7] = tested on: slender amaranth (Amaranthus viridis L.); assay: as above; conditions: soil surface spray, upland field soil, 1,000 g active ingredient per hectare, 21st day after application
Outline: as §2

[8] = tested on: barnyardgrass (Echinochloa crus-galli (L.) P. Beauv. var. crus-galli); assay: as above; conditions: soil surface spray, upland field soil, 1,000 g active ingredient per hectare, 21st day after application
Outline: as §2

[9] = tested on: Japanese bulrush (Scirpus juncoides Roxb.); assay: Test Example 1: herbicidal effect by soil application to paddy field; conditions: paddy field soil application; active ingredient 1,000 g per 1 hectare; wettable powder added dropwise to water surface the day after sowing; examined on the 21st day after application
Outline: (§3)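 Plants were sown in flooded (3 cm) paddy soil and evaluated for herbicidal effect 21 days after soil application in a greenhouse.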

[10] = tested on: early watergrass (Echinochloa oryzicola Vasing); assay: as above; conditions: paddy field soil application; active ingredient 1,000 g per 1 hectare; wettable powder added dropwise to water surface the day after sowing; examined on the 21st day after application
Outline: as §3

[11] = tested on: heartshape false pickerelweed (Monochoria vaginalis (Burm.f.) C.Presl); assay: as above; conditions: paddy field soil application; active ingredient 1,000 g per 1 hectare; wettable powder added dropwise to water surface the day after sowing; examined on the 21st day after application
Outline: as §3

SMILES | herbicidal effect, Velvetleaf [1] | herbicidal effect, Green Foxtail [2] | herbicidal effect, Slender Amaranth [3] | herbicidal effect, Barnyardgrass [4] | herbicidal effect (index), Velvetleaf [5] | herbicidal effect (index), Green Foxtail [6] | herbicidal effect (index), Slender Amaranth [7] | herbicidal effect (index), Barnyardgrass [8] | herbicidal effect, Scirpus juncoides Roxb. [9] | herbicidal effect, Echinochloa oryzicola Vasing [10] | herbicidal effect, Monochoria vaginalis (Burm. f.) C. Presl [11]
Cn1ncc(C(=O)c2ccc(C(F)(F)F)n(CC3OCCO3)c2=O)c1O [IV-119] | 4 (70 to less than 90% of herbicidal effect and crop phytotoxicity) | 4 (70 to less than 90% of herbicidal effect and crop phytotoxicity) | 5 (90% or more of herbicidal effect and crop phytotoxicity) | 5 (90% or more of herbicidal effect and crop phytotoxicity) | 5 (90% or more of herbicidal effect and crop phytotoxicity) | 5 (90% or more of herbicidal effect and crop phytotoxicity) | 5 (90% or more of herbicidal effect and crop phytotoxicity) | 5 (90% or more of herbicidal effect and crop phytotoxicity) | 5 (90% or more of herbicidal effect and crop phytotoxicity) | 5 (90% or more of herbicidal effect and crop phytotoxicity) | 5 (90% or more of herbicidal effect and crop phytotoxicity)
Cn1ncc(C(=O)c2ccc(C(F)(F)F)n(CC3CCCO3)c2=O)c1O (stereo not shown) [IV-129] | 5 (90% or more of herbicidal effect and crop phytotoxicity) | 4 (70 to less than 90% of herbicidal effect and crop phytotoxicity) | 5 (90% or more of herbicidal effect and crop phytotoxicity) | 5 (90% or more of herbicidal effect and crop phytotoxicity) | 5 (90% or more of herbicidal effect and crop phytotoxicity) | 3 (50 to less than 70% of herbicidal effect and crop phytotoxicity) | 5 (90% or more of herbicidal effect and crop phytotoxicity) | 4 (70 to less than 90% of herbicidal effect and crop phytotoxicity) | 5 (90% or more of herbicidal effect and crop phytotoxicity) | 5 (90% or more of herbicidal effect and crop phytotoxicity) | 5 (90% or more of herbicidal effect and crop phytotoxicity)
CCCCCCCC(=O)Oc1c(C(=O)c2ccc(C(F)(F)F)n(CC3CCCO3)c2=O)cnn1C (stereo not shown) [IV-130] | 4 (70 to less than 90% of herbicidal effect and crop phytotoxicity) | 4 (70 to less than 90% of herbicidal effect and crop phytotoxicity) | 5 (90% or more of herbicidal effect and crop phytotoxicity) | 5 (90% or more of herbicidal effect and crop phytotoxicity) | 5 (90% or more of herbicidal effect and crop phytotoxicity) | 4 (70 to less than 90% of herbicidal effect and crop phytotoxicity) | 5 (90% or more of herbicidal effect and crop phytotoxicity) | 4 (70 to less than 90% of herbicidal effect and crop phytotoxicity) | 5 (90% or more of herbicidal effect and crop phytotoxicity) | 5 (90% or more of herbicidal effect and crop phytotoxicity) | 5 (90% or more of herbicidal effect and crop phytotoxicity)
CCCS(=O)(=O)Oc1c(C(=O)c2ccc(C(F)(F)F)n(CC3CCCO3)c2=O)cnn1C (stereo not shown) [IV-140] | 5 (90% or more of herbicidal effect and crop phytotoxicity) | 3 (50 to less than 70% of herbicidal effect and crop phytotoxicity) | 5 (90% or more of herbicidal effect and crop phytotoxicity) | 5 (90% or more of herbicidal effect and crop phytotoxicity) | 5 (90% or more of herbicidal effect and crop phytotoxicity) | 5 (90% or more of herbicidal effect and crop phytotoxicity) | 5 (90% or more of herbicidal effect and crop phytotoxicity) | 5 (90% or more of herbicidal effect and crop phytotoxicity) | 5 (90% or more of herbicidal effect and crop phytotoxicity) | 5 (90% or more of herbicidal effect and crop phytotoxicity) | 5 (90% or more of herbicidal effect and crop phytotoxicity)
Cn1ncc(C(=O)c2ccc(C(F)(F)F)n(CC3CCOC3)c2=O)c1O (stereo not shown) [IV-143] | 5 (90% or more of herbicidal effect and crop phytotoxicity) | 5 (90% or more of herbicidal effect and crop phytotoxicity) | 5 (90% or more of herbicidal effect and crop phytotoxicity) | 5 (90% or more of herbicidal effect and crop phytotoxicity) | 5 (90% or more of herbicidal effect and crop phytotoxicity) | 5 (90% or more of herbicidal effect and crop phytotoxicity) | 5 (90% or more of herbicidal effect and crop phytotoxicity) | 5 (90% or more of herbicidal effect and crop phytotoxicity) | 5 (90% or more of herbicidal effect and crop phytotoxicity) | 5 (90% or more of herbicidal effect and crop phytotoxicity) | 5 (90% or more of herbicidal effect and crop phytotoxicity)
CNn1c(C(F)(F)F)ccc(C(=O)c2cnn(C)c2O)c1=O [IV-146] | 5 (90% or more of herbicidal effect and crop phytotoxicity) | 5 (90% or more of herbicidal effect and crop phytotoxicity) | 5 (90% or more of herbicidal effect and crop phytotoxicity) | 5 (90% or more of herbicidal effect and crop phytotoxicity) | 5 (90% or more of herbicidal effect and crop phytotoxicity) | 5 (90% or more of herbicidal effect and crop phytotoxicity) | 5 (90% or more of herbicidal effect and crop phytotoxicity) | 5 (90% or more of herbicidal effect and crop phytotoxicity) | 5 (90% or more of herbicidal effect and crop phytotoxicity) | 5 (90% or more of herbicidal effect and crop phytotoxicity) | 5 (90% or more of herbicidal effect and crop phytotoxicity)
CCCNn1c(C(F)(F)F)ccc(C(=O)c2cnn(C)c2O)c1=O [IV-148] | 5 (90% or more of herbicidal effect and crop phytotoxicity) | 5 (90% or more of herbicidal effect and crop phytotoxicity) | 5 (90% or more of herbicidal effect and crop phytotoxicity) | 5 (90% or more of herbicidal effect and crop phytotoxicity) | 5 (90% or more of herbicidal effect and crop phytotoxicity) | 5 (90% or more of herbicidal effect and crop phytotoxicity) | 5 (90% or more of herbicidal effect and crop phytotoxicity) | 5 (90% or more of herbicidal effect and crop phytotoxicity) | 5 (90% or more of herbicidal effect and crop phytotoxicity) | 5 (90% or more of herbicidal effect and crop phytotoxicity) | 5 (90% or more of herbicidal effect and crop phytotoxicity)
CC(=O)Oc1c(C(=O)c2ccc(C(F)(F)F)n(C)c2=O)cnn1C [IV-174] | 5 (90% or more of herbicidal effect and crop phytotoxicity) | 5 (90% or more of herbicidal effect and crop phytotoxicity) | 5 (90% or more of herbicidal effect and crop phytotoxicity) | 5 (90% or more of herbicidal effect and crop phytotoxicity) | 5 (90% or more of herbicidal effect and crop phytotoxicity) | 5 (90% or more of herbicidal effect and crop phytotoxicity) | 5 (90% or more of herbicidal effect and crop phytotoxicity) | 5 (90% or more of herbicidal effect and crop phytotoxicity) | 5 (90% or more of herbicidal effect and crop phytotoxicity) | 5 (90% or more of herbicidal effect and crop phytotoxicity) | 5 (90% or more of herbicidal effect and crop phytotoxicity)
